Experimental data: US9456589B2, “Elasmobranch-repelling compounds and methods of use” (priority 2005, dated 2016)
Where “and” joins values, the source holds several entries; their conditions need not be identical. Equal entries are not always repeated.

Key:
nurse sharks = assay: Tonic immobility, Bite Assay; assay type: in vivo, C. cirratum
Method: One bioassay used to observe and measure flight response is the tonic immobility test. Tonic immobility is a state of paralysis that typically occurs when a shark is subject to inversion of its body along the longitudinal axis. This state is called “tonic,” and the shark can remain in this state for up to 15 minutes thereby allowing researchers to observe effects of chemical repellents. The “tonic” state of the shark is first established by releasing seawater in proximity to the “tonic” shark with the same delivery instrument and at the same distance as a “test” repellent compound will be released. Some controls are released with a high flow rate (30 mL/sec) in order to establish that sharks are not awakened by a jet of fluid over their noses. Once behavioral controls are established, a compound or composition that may have a repelling effect is delivered to the shark. […] Using this tonic immobility bioassay researches can quantify the strength of a repellent effect. […]
In Bite Assays, a dose of typically less than 5 mL of 3-methylbutanal was presented directly into the shark's mouth using a pipette. […] Because the delivery was directly into the shark's mouth and responses were generally observed immediately upon delivery, time to response was not recorded.

[1] = system: sharks (lemon, nurse, tiger pooled); assay: Tonic immobility, Hd Syringe Assay, summary over species; assay type: in vivo; conditions: species pooled
In short: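 Sharks held in tonic immobility by inversion, with seawater sham releases (some at 30 mL/sec) as controls. 3-methylbutanal released slowly by 3 mL syringe (22 gauge) within 3 inches of mouth and nares. Waking/flight response recorded, with time to response where measurable.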

[2] = system: juvenile lemon and nurse sharks; assay: Tonic immobility, Micropipette Assay, summary over species; assay type: in vivo; conditions: juvenile lemon and nurse sharks
Method: (§1) One bioassay used to observe and measure flight response is the tonic immobility test. Tonic immobility is a state of paralysis that typically occurs when a shark is subject to inversion of its body along the longitudinal axis. This state is called “tonic,” and the shark can remain in this state for up to 15 minutes thereby allowing researchers to observe effects of chemical repellents. The “tonic” state of the shark is first established by releasing seawater in proximity to the “tonic” shark with the same delivery instrument and at the same distance as a “test” repellent compound will be released. Some controls are released with a high flow rate (30 mL/sec) in order to establish that sharks are not awakened by a jet of fluid over their noses. Once behavioral controls are established, a compound or composition that may have a repelling effect is delivered to the shark. If the compound or composition engenders a flight response, the shark will awaken from the tonic state and rapidly attempt to flee the delivered repellent. Using this tonic immobility bioassay researches can quantify the strength of a repellent effect.
A fourth method of delivery was called the “Micropipette Assay” method of delivery. In this method, a very small dose (fraction of a mL) of a test substance was delivered directly into a shark's mouth. […] A response, such as a cough or other notable action of the shark, was usually noted when effective gustatory repellents were delivered directly into a shark's mouth while in tonic immobility.
The Micropipette Assay method has not proven to be a particularly effective method of assaying for a flight response in elasmobranchs. The Micropipette Assay method is, nevertheless, an excellent method for specifying that a gustatory response has occurred. It is effective for specifying a gustatory response because the micropipette delivery method allows direct delivery of an entire bolus of test substance into the mouth of the shark being tested.
An oral dose of no more than 400 microliters was then delivered by micropipette into the mouth of a juvenile nurse shark. Tonic immobility was terminated. For each derivative of butyric acid and each naturally occurring acid listed in Table 9, a first micropipette assay was performed on a juvenile lemon shark with no more than 100 microliters of test acid in an oral dose. A second micropipette assay was then performed on a juvenile nurse shark with no more than 400 microliters of test acid in an oral dose. In each test, tonic immobility was terminated.
In a first set of studies on the effectiveness of carboxylic acids as elasmobranch repellents, each tested substance was subjected to the following protocol. […] An oral dose of no more than 400 microliters was then delivered by micropipette into the mouth of a juvenile nurse shark. Tonic immobility was terminated. […] The data evidences the gustatory repelling activity of carboxylic acids.

sharks (species pooled) = assay: Tonic immobility, total of delivery methods not including Micropipette assays; assay type: in vivo
Method: as §1
Table 1, which summarizes the data in Tables 14 and 15, evidences the gustatory repellent characteristics of methylbutanals. In 35 of 36 assays (combining columns “Y” and “R” under the column labeled “Total (Not including Micropipette Assays)” to arrive at a 97% effectiveness rate), including assays on lemon, nurse, tiger and blacktip sharks, the gustatory repellent activity of 3-methylbutanal was established. In 81% of assays, tonic immobility was fully terminated. […] In only a single assay did a shark not respond to treatment with 3-methylbutanal.

[3] = system: captive Cobia and Yellowfin Tuna; assay: Feeding behavior of captive fish in the presence of aldehydes; assay type: in vivo
Excerpt: Similarly, teleost reef fish, such as Triggerfish and Snappers, have been observed feeding and swimming in a cloud of shark-repelling aldehydes. This behavior is presumed to result from the lack of aldehyde-receptors in the fishes' gustatory system.

[4] = species and delivery methods pooled

Compound: CC(C)CC=O [3-methylbutanal]
- Bite Y (termination of tonic immobility), trials of trials (nurse sharks): each resulting in termination of tonic immobility and 2/2
- Hd-Syringe N (no response), trials of trials [1]: one and 1/27
- Hd-Syringe R (behavior response within tonic immobility), trials of trials [1]: 6/27
- Hd-Syringe R, percent of trials [1]: 22%
- Hd-Syringe Y (termination of tonic immobility), trials of trials [1]: 20/27
- Hd-Syringe Y, percent of trials [1]: 74%
- Micropipette assays with a behavioral response within tonic immobility [2]: ten
- Micropipette assays with a gustatory response (termination or behavior change) [2]: 16 of 20 and fifteen
- Micropipette assays with no response [2]: five
- Micropipette Y (termination of tonic immobility), trials of trials ([2]; oral dose): five
- assays with termination of tonic immobility or behavior change (Y and R combined), not including Micropipette assays (sharks (species pooled); Hd Syringe, Syringe 3/5/10 and Bite, lemon, nurse, tiger, blacktip): 40 of 41 and 35 of 36
- effectiveness rate (Y and R combined), not including Micropipette assays (sharks (species pooled); lemon, nurse, tiger, blacktip): 97%
- Total (Not including Micropipette assays / Effective Delivery Methods) N, trials of trials (sharks (species pooled); [4]): single and 1/36
- Total (Not including Micropipette assays / Effective Delivery Methods) R, trials of trials (sharks (species pooled); [4]): 6/36
- Total (Not including Micropipette assays / Effective Delivery Methods) Y, trials of trials (sharks (species pooled); [4]): 29/36
- Total N, percent of trials (sharks (species pooled); [4]): (3%)
- feeding behavior of fish in the presence of the aldehyde [3]: slightly increased
